Results on one compound are retold here after PMC5517562, “Design and discovery of novel monastrol-1,3,5-triazines as potent anti-breast cancer agent via attenuating Epidermal Growth Factor Receptor tyrosine kinase” (Scientific Reports, 2017).

The structures appear in SMILES notation.

In assay [1] the test system is HepG2 (Hepatocellular carcinoma). In words: MTT in vitro cytotoxicity assay, HepG2. The class given is cell-based, human. Conditions: Homo sapiens, NA: Not active. Here is the method:
(§1) The synthesized compounds were evaluated for in-vitro cytotoxic activity against various cell lines such as HeLa (cervical cancer), MCF-7 (breast cancer), HL-60 (Human promyelocytic leukemia), HepG2 (Hepatocellular carcinoma) and MCF 12A (normal epithelial cell) by the MTT assay method. […] The relationship between surviving fraction and drug concentration was plotted to obtain the survival curve of all the cancer cell lines HeLa, MCF-7, HL-60 and HepG2. The response parameter calculated was the IC50 values, which responds to the concentration required for 50% inhibition of cell viability. The in-vitro cytotoxic activity of the synthesized compounds is summarized Table 3.
(§2) The target compounds were subjected to in vitro cytotoxicity bioassay. In vitro cytotoxicity was determined using a standard MTT assay with protocol appropriate for the individual test system[29]–[31]. The four human cancer cell lines HeLa, MCF-7, HL-60, HepG2 and MCF-12A were cultured in the MEM medium supplemented with 10% FBS, 1% glutamine and […] gentamicin sulfate in a CO2 incubator in a humidified atmosphere of 5% CO2 and 95% air. The test compounds were prepared prior to the experiment by dissolving in 0.1% DMSO and diluted with medium. The cells were then exposed to different concentrations of drugs ([…]) in the volume of […]. Cells in the control wells received the same volume of medium containing 0.1% DMSO. After 24 h, the medium was removed and cell cultures were incubated with […] MTT reagent (1 mg/ml) for 5 h at 37 °C. The known number of cells ([…]) was incubated in a 5% CO2 incubator at 37 °C in the presence of different concentrations of test compounds. After 48 h of drug incubation, the MTT solution was added in each well and absorbance was recorded at 540 nm by an ELISA reader. The experiment was performed in triplicate. Cell survival was calculated as the percentage of MTT inhibition as % growth inhibition = 100 − (mean OD of individual test Group/Mean OD of each Control Group) × 100.

The subject of the next assay is HeLa (cervical cancer). As to the kind of experiment: MTT in vitro cytotoxicity assay, HeLa. The class given is cell-based, human. Conditions: Homo sapiens. Here is the method: as §1, §2
For another assay, the system named is MCF-7 (breast cancer). As to the kind of experiment: MTT in vitro cytotoxicity assay, MCF-7. The class given is cell-based, human. Conditions: Homo sapiens, MCF7. As for the experimental part: as §1, §2
The test system of assay [2] is HL-60 (Human promyelocytic leukemia). In words: MTT in vitro cytotoxicity assay, HL-60. It is filed as cell-based. Conditions: Homo sapiens. Here is the method: as §1, §2
In the next assay the target is T1, EGFR-TK (Homo sapiens, UniProt P00533).
T1 construct: 0.2 mg/mL Poly (Glu, Tyr) substrate, 10 mM ATP and EGFR
As to the kind of experiment: EGFR tyrosine kinase inhibitory activity (Kinase-Glo Plus luminescence). Conditions: at 10 µM; read-out: Percent of Inhibition, EGFR tyrosine kinase. It is filed as biochemical. Here is the method:
Kinase activity was determined using Kinase-Glo Plus luminescence kinase assay kit, by quantitating the amount of ATP remaining in the solution of kinase reaction. The luminescent signal is correlated with the residual amount present and it was inversely related with kinase activity. The tested compounds were diluted to 100 mM in 10% DMSO, then […] of the dilution was added to a 50 mL reaction. All of the enzymatic reactions were performed at 30 °C for 40 min, 50 mL of reaction mixture contains 10 mM MgCl2, 40 mM Tris, pH 7.4, 0.1 mg/mL BSA, 0.2 mg/mL Poly (Glu, Tyr) substrate, 10 mM ATP and EGFR. Incubate the plate for 5 min at r.t. then add 50 mL of Kinase-GloPlus Luminescence kinase assay to each reaction. ADP-Glo assay kit is the protein kinase assays used to determine IC50 values in which ADP generation was measured as it leads to an increase in luminescence signal. The reaction mixture was incubated in a 96-well plate at 30 °C for 30 min, after the incubation period add 25 mL of ADP-Glo reagent to terminate the assay. Shake the 96-well plate for 30 min at ambient temperature then incubate it, then add 50 mL of kinase detection reagent. Read the 96-well plate using the ADP-Glo Luminescence reader. All the assay components were added to the blank control except the substrate. By removing the blank control value you can obtain the corrected activity for each protein kinase target.

Assay [3] has as its system p-EGFR and p-Akt levels of MCF-7. As to the kind of experiment: Western blot of EGFR activation and downstream signalling in MCF-7. It is filed as cell-based, human. Conditions: immunoblotting, concentration-dependent. An excerpt: However, despite of excellent inhibitory activity of 7l against the EGFR-TK, its mechanism behind this phenomena has not been elucidate till now, thus, in this part of the study, we are interested in exploring the effect of compound 7l on the activation and downstream signalling pathway of the EGFR. Towards this, the effect of 7l has been determined on the expression of p-EGFR and EGFR, p-Akt and Akt levels of MCF-7 by immunoblotting experiments. Results as presented in Fig. 14 confirmed the effect of 7l on the expression of p-EGFR and p-Akt. […] Results clearly indicate the ability of 7l to inhibit the phosphorylation of EGFR which in turn decreases Akt (the downstream target protein of p-EGFR).
After incubation with the test compound, the cells were harvested and washed with PBS, and then lysed in lysis buffer. After centrifugation at 12,000 × g for 5 min, the supernatant was collected as total protein. The concentration of the protein was determined by a protein assay kit. The protein samples were separated by 10% SDS–PAGE and subsequently electro-transferred onto a PVDF (Millipore, Bedford, MA, USA). […] The antibodies were purchased from Cell Signaling Technology (MA, USA) Thus, the expression of p-EGFR, EGFR, p-Akt (pS473) and Akt were visualized by enhanced chemiluminescence (ECL) (Thermofischer Scientific Inc. USA) kit and band intensity was analyzed by image j software.
For orientation: Immunoblotting shows a protein as a band on a membrane.

Assay [4] deals with MCF 12A (normal epithelial breast cell line). In words: MTT assay on normal cells, MCF 12A. The class given is cell-based, human. Conditions: normal epithelial breast cell MCF 12A. As for the experimental part: as §1
The presence of non-halogen substituent along with electron donating substituent seriously jeopardise the anticancer potential. […] To determine the selectivity of these molecules between normal and cancerous cells, the designed compounds were also tested against MCF 12A, a normal epithelial breast cell.
as §2

T1 sequence (P00533 25-1210): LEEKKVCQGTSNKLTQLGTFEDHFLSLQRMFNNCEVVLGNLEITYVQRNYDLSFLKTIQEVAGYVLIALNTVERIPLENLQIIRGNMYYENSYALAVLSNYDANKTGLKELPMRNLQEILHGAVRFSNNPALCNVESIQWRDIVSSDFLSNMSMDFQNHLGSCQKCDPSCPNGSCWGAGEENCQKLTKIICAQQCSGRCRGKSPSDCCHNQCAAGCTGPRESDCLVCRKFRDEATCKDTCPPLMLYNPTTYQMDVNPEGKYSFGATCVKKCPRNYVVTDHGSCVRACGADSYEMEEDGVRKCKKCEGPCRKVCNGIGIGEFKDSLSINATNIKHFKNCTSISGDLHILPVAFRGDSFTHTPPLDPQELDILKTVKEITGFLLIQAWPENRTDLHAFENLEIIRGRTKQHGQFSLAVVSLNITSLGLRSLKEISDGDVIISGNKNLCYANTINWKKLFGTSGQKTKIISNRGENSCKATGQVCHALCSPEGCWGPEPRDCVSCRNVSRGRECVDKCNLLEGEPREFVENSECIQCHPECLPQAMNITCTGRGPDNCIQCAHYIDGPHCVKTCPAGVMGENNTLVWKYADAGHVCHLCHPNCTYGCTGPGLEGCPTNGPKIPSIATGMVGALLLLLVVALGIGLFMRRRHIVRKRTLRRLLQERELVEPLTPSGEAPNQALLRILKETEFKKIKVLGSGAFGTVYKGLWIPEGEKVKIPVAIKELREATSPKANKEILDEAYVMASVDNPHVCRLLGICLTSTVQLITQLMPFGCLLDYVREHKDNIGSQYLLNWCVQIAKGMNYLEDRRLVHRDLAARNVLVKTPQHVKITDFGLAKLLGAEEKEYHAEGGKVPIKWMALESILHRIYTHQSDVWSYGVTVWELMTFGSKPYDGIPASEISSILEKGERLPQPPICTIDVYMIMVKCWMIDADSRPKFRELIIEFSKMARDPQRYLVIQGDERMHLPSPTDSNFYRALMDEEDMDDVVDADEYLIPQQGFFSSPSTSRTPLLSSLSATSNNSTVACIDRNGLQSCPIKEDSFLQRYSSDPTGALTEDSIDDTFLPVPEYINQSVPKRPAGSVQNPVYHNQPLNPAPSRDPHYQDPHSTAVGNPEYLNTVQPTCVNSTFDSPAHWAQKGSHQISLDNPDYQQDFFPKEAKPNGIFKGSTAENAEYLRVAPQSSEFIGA

As a reminder, the IC50 is the midpoint of a concentration-inhibition curve. A higher IC50 goes with weaker potency in that assay. By inhibition is commonly meant how much of the control response was suppressed. As to `CCOC(=O)C1=C(C)N(c2nc(Nc3cccc(F)c3)nc(Nc3cccc(F)c3)n2)C(=S)NC1c1ccc(F)cc1` (centres unmarked) [7l, Ethyl 1-(4,6-bis((3-fluorophenyl)amino)-1,3,5-triazin-2-yl)-4-(4-fluorophenyl)-6-methyl-2-thioxo-1,2,3,4-tetrahydropyrimidine-5-carboxylate], the IC50 was 31.2 ± 0.82 µM in assay [1], 39.7 ± 0.81 µM with HeLa (cervical cancer), 41.5 ± 0.31 µM with MCF-7 (breast cancer) and 23.1 ± 0.36 µM in assay [2]. The inhibition at 10 µM on EGFR-TK amounted to 96.4%. Also, in assay [3], the “Level of p-Akt” value is recorded as “significantly reduced”. For the same compound, in assay [3], the “Level of p-EGFR” value is on record as “significantly reduced”. Besides, the “IC50 MCF 12A” value in assay [4] was “non-toxic”.
